In patent US20100029646A1, “PRODRUGS OF DIPHENYL OX-INDOL-2-ONE COMPOUNDS” (Topo Target A/S, priority 2006, published 2010):

SMILES | melting point [°C]
O=C(Nc1ccccc1)Oc1ccc(C2(c3ccc(OC(=O)Nc4ccccc4)cc3)C(=O)Nc3c2ccc(F)c3F)cc1 | 163 to 165
O=C1N(CCO)c2c(ccc(F)c2F)C1(c1ccc(O)cc1)c1ccc(F)cc1 (stereo not drawn) [Compound 1007, 6,7-Difluoro-3-(4-fluorophenyl)-1-(2-hydroxyethyl)-3-(4-hydroxyphenyl)-1,3-dihydro-2H-indol-2-one] | 80 to 83
O=C(CCN1CCOCC1)Oc1ccc(C2(c3ccc(F)cc3)C(=O)Nc3c2ccc(F)c3F)cc1 (stereo not drawn) [Compound 1009, 4-[6,7-Difluoro-3-(4-fluorophenyl)-2-oxo-2,3-dihydro-1H-indol-3-yl]phenyl 3-morpholinopropanoate] | 174 to 175
CN1CCN(CCC(=O)Oc2ccc(C3(c4ccc(F)cc4)C(=O)Nc4c3ccc(F)c4F)cc2)CC1 (stereo not drawn) [Compound 1010, 4-[6,7-Difluoro-3-(4-fluorophenyl)-2-oxo-2,3-dihydro-1H-indol-3-yl]phenyl 3-(4-methylpiperazino)propanoate] | 149 to 151
COc1ccc(C2(c3ccc(OCOC(=O)OC(C)C)cc3)C(=O)N(COC(=O)OC(C)C)c3ccccc32)cc1 (stereo not drawn) [Compound 1011, [3-(4-{[(Isopropoxycarbonyl)oxy]methoxy}phenyl)-3-(4-methoxyphenyl)-2-oxo-2,3-dihydro-1H-indol-1-yl]methyl isopropyl carbonate] | 63 to 65
C=CC(=O)Oc1ccc(C2(c3ccc(F)cc3)C(=O)Nc3c2ccc(F)c3C)cc1 (stereo not drawn) [Compound 1016, 4-[6-Fluoro-3-(4-fluorophenyl)-7-methyl-2-oxo-2,3-dihydro-1H-indol-3-yl]phenyl acrylate] | 223 to 225
